Test results from patent US4975451A, “Insecticidal cyclopropyl di(aryl) 2-butenes” (FMC Corporation, priority 1989, dated 1990).
In brackets after ≈: the same amount, converted by molar mass.

Columns and labels:
twospotted spider mite = test: Foliar acaricidal test, twospotted spider mite (susceptible); format: in vivo; settings: Tetranychus urticae, 48 hours, read-out: % Kill TSM-S; for mortality at 100 ppm: rate 100 ppm; for mortality at 500 ppm: rate 500 ppm
Procedure: (§1) The insecticidal activity of the pyrethroid-like compounds of this invention as identified in Table 1, appended, was evaluated as follows:
(§2) Compounds within the scope of this invention were tested by foliar application at various concentrations in aqueous solutions containing 10% (volume/volume) acetone and water. Insect species utilized included the cabbage looper (Trichoplusia ni), Mexican bean beetle (Epilachna varivestis), pea aphid (Acryrthosiphon pisum), tobacco budworm (Heliothis virescens) and twospotted spider mite (Tetranychus urticae).
Acaricidal tests were performed using the following procedure: Leaves infested with adult twospotted spider mites (Tetranvchus urticae) were removed from culture plants and cut into segments containing 50-75 female mites. Each segment was placed on the upper leaf surface of a whole pinto bean plant. After the mites had migrated to the under surfaces of the leaves, the leaf segments used to infest were removed, and each plant was sprayed with test chemicals as described above. After the plants had dried, the entire plant and pot were placed in metal trays in a hood, a supply of water in the tray keeping the plants turgid. After 48 hours the living and dead mites were counted, and percent mortality was calculated.

southern corn rootworm = test: Soil evaluation, southern corn rootworm; format: in vivo, Diabrotica undecimounctata Howardi; settings: rate 7.5 ppm, 48 hours, read-out: Initial % Kill SCR
Procedure: Soil evaluation of insecticidal activity of test compounds were conducted against the southern corn rootworm (Diabrotica undecimounctata Howardi). A 0.25 ml aliquot of a stock solution containing 64 mg of the candidate insecticide in 4.0 ml of acetone was pipetted into 41 mL of distilled water containing 0.1% octylphenoxypolyethoxyethanol emulsifier. […] In all cases, four mL of each test solution was pipetted into a 4 ounce specimen cup containing two two-day-old corn sprouts completely covered by 26 grams of dry sandy soil. The treated soil in each cup was allowed to stand uncovered in a hood to evaporate the acetone. Each cup was capped and the soil in each cup was mixed thoroughly. The cap of each cup was removed, and ten second instar southern corn rootworm larvae were added to each cup. The cups were each covered with lids perforated with two small holes to allow for ventilation. The cups were then held under fluorescent light (12 hours light: 12 hours dark) at 24°-26° C. for 48 hours. An untreated check and an appropriate standard were included in each test. Two replicates were run for each chemical treatment. The unaffected larvae from the soil of each cup were extracted by placing the contents of each cup into a modified Berlese polyethylene funnel fitted with an 18-mesh screen. The funnels were placed over containers of an aqueous detergent solution. Incandescent lights (100 watts) were placed 36 cm above the soil in each funnel. The heat from these lights slowly dried the soil causing larvae that had not been affected by the candidate insecticide to emerge from the soil and drop out of the funnel into the detergent solution. The percent mortality was determined by comparing the number of live larvae in the detergent solution with the total number of larvae infested during the initiation of the test. Percent mortality was determined in this manner for each concentration.

Fish toxicity, tilapia = format: in vivo; settings: water; Tilapia (Oreochromis niloticus), 48 hour test
Procedure: Compounds of the present invention were tested for toxicity to fish using one inch long tilapia (Oreochromis niloticus). Prior to the test the tilapia were acclimated for one week in an aquarium, during which time they were fed with a ration of rice bran and pelletized hog feed. The water in the aquarium was changed daily with distilled water.
Stock solutions of each of the test chemicals were prepared by dissolving the weighed technical material in acetone and adding distilled water to provide a 1% acetone in water solution.
The test solutions were prepared by diluting the appropriate amount of a stock solution to 25 mL with distilled water. The appropriate amount of stock solution was determined for the concentration required in a final volume of 800 mL of test solution. The test chemicals were tested in triplicate at concentrations ranging from 0.005 ppm to 20 ppm. The actual concentrations of the test chemicals needed to determine LC50 values were determined by fish toxicity-range of application studies prior to the LC50 test. Each 25 mL test chemical solution was added to a one liter aquarium containing 500 mL of 0.01% (v/v) ethylene glycol in water. The aquariums were shaken gently and then allowed to stand for one hour. After this time the tilapia were added by first placing five fish in a container with 275 mL of distilled water and then pouring the water and fish into each aquarium. The dead and live fish were counted after 24 and 48 hours. Any fish observed to be dead was removed from its aquarium immediately. Upon completion of the 48 hour test period, the lethal concentration of each compound tested that would give 50% mortality to the tilapia was determined.

cabbage looper = test: Foliar evaluation, cabbage looper; format: in vivo; settings: Trichoplusia ni, 48 hours, read-out: % Kill CL; for mortality at 100 ppm: rate 100 ppm; for mortality at 500 ppm: rate 500 ppm
Procedure: as §1, §2
(§3) For all insects except the pea aphid, pinto beans (Phaseolus vulgaris) plants were treated with the test solutions. The test solutions were applied with a sprayer to the upper and lower surfaces of the plant leaves to runoff. The plants were then allowed to dry and were severed at the base of the stem before being placed in cups. Ten second instar individuals of the appropriate insect species, except the tobacco budworm, were placed in each cup and the cup covered. Tests with the tobacco budworm used four replicates with each replicate containing five second instar tobacco budworms. In all tests, mortality was read 48 hours later.

Mexican bean beetle = test: Foliar evaluation, Mexican bean beetle; format: in vivo; settings: Epilachna varivestis, 48 hours, read-out: % Kill MBB; for mortality at 100 ppm: rate 100 ppm
Procedure: as §1, §2, §3

pea aphid = test: Foliar evaluation, pea aphid; format: in vivo, Acryrthosiphon pisum; settings: Acyrthosiphon pisum, 48 hours, read-out: % Kill PA; for mortality at 100 ppm: rate 100 ppm; for mortality at 500 ppm: rate 500 ppm
Procedure: as §1, §2, §3
In the case of the pea aphid, fava bean (Vicia faba) was substituted for pinto bean. The treated, potted plants were placed in cups infested with ten individuals and covered. Mortality was read 48 hours later.

tobacco budworm = test: Foliar evaluation, tobacco budworm; format: in vivo; settings: Heliothis virescens, 48 hours, read-out: % Kill TBW; for mortality at 100 ppm: rate 100 ppm; for mortality at 500 ppm: rate 500 ppm
Procedure: as §1, §2, §3

Structure (SMILES) | mortality at 100 ppm (twospotted spider mite) | mortality at 7.5 ppm (southern corn rootworm) | LC50 at 48 h (Fish toxicity, tilapia) | mortality at 100 ppm (cabbage looper) | mortality at 100 ppm (Mexican bean beetle) | mortality at 100 ppm (pea aphid) | mortality at 100 ppm (tobacco budworm) | other results
Clc1ccc(C(C=CCc2cccc(Oc3ccccc3)c2)C2CC2)cc1 (stereo not shown) [Compound 1] | 2% | 45% | 3 to 5 µg/mL (≈ 8 to 13.3 µM) | 100% | 100% | 75% | 100% | –
Fc1ccc(CC=CC(c2ccc(Cl)cc2)C2CC2)cc1Oc1ccccc1 (stereo not shown) [Compound 2, 1-cyclopropyl-1-(4-chlorophenyl)-4-(4-fluoro-3-phenoxyphenyl)-2-butene] | 0% | 45% | 7.5 to 10 µg/mL (≈ 19.1 to 25.5 µM) | 100% | 100% | 80% | 100% | –
FC(F)(F)c1ccc(C(C=CCc2cccc(Oc3ccccc3)c2)C2CC2)cc1 (stereo not shown) [Compound 3] | 90% | 60% | 5 to 7.5 µg/mL (≈ 12.2 to 18.4 µM) | 90% | 100% | 45% | 100% | –
Fc1ccc(CC=CC(c2ccc(C(F)(F)F)cc2)C2CC2)cc1Oc1ccccc1 (stereo not shown) [Compound 4] | 90% | – | – | 100% | 100% | 90% | 100% | –
FC(F)(F)Oc1ccc(C(C=CCc2cccc(Oc3ccccc3)c2)C2CC2)cc1 (stereo not shown) [Compound 5] | 100% | 50% | 1 to 3 µg/mL (≈ 2.36 to 7.07 µM) | 85% | 100% | 100% | 80% | –
Fc1ccc(CC=CC(c2ccc(OC(F)(F)F)cc2)C2CC2)cc1Oc1ccccc1 (stereo not shown) [Compound 6, 1-cyclopropyl-1-(4-trifluoromethoxyphenyl)-4-(4-fluoro-3-phenoxyphenyl)-2-butene] | 99% | 70% | 9 µg/mL (≈ 20.3 µM) | 100% | 100% | 85% | 100% | –
Cc1c(CC=CC(c2ccc(Cl)cc2)C2CC2)cccc1-c1ccccc1 (stereo not shown) [Compound 7] | – | 50% | – | – | – | – | – | mortality at 500 ppm (twospotted spider mite): 7%; mortality at 500 ppm (cabbage looper): 100%; mortality at 500 ppm (Mexican bean beetle; rate 500 ppm): 100%; mortality at 500 ppm (pea aphid): 60%; mortality at 500 ppm (tobacco budworm): 100%
Cc1c(CC=CC(c2ccc(OCC3CC3)cc2)C2CC2)cccc1-c1ccccc1 (stereo not shown) [Compound 8] | – | – | – | – | – | – | – | mortality at 500 ppm (twospotted spider mite): 0%; mortality at 500 ppm (cabbage looper): 100%; mortality at 500 ppm (pea aphid): 5%; mortality at 500 ppm (tobacco budworm): 22%
CCOc1ccc(C(C=CCc2cccc(-c3ccccc3)c2C)C2CC2)cc1 (stereo not shown) [Compound 9] | – | – | – | – | – | – | – | mortality at 1000 ppm (twospotted spider mite; rate 1000 ppm): 100%; mortality at 1000 ppm (cabbage looper; rate 1000 ppm): 100%; mortality at 1000 ppm (Mexican bean beetle; rate 1000 ppm): 90%; mortality at 1000 ppm (pea aphid; rate 1000 ppm): 100%
CC1(C)C(C=C(Cl)Cl)C1C(=O)OC(C#N)c1cccc(Oc2ccccc2)c1 (stereo not shown) [cypermethrin, reference compound] | – | – | 0.02 µg/mL (≈ 0.048 µM) | – | – | – | – | –
